Measurements as given in patent US8877820B2, “Compositions comprising a retinoid and an NFkB-inhibitor and their methods of use” (Johnson & Johnson Consumer Companies, Inc., priority 2010, dated 2014).

Tested on: NF-κB gene reporter in FB293 cells
Assay: NFκB-INHIBITION TEST (luciferase gene reporter, TNFα-stimulated FB293 cells)
Assay type: cell-based, human
Details: for Percent NF-kB Inhibition: FB293 cells, TNFα 100 ng/ml, 24 h; for NF-κB inhibition (in words): summary of Table 2
Description: The NFκB-INHIBITION TEST is conducted in the following manner. FB293 cells, a stable transfected human epithelial cell line containing the gene reporter for NF-κB are used. They may be obtained from, e.g., Panomics (Fremont, Calif.). FB293 are plated at a density of 5×10^4 cells/mL in a suitable medium, e.g., Dulbecco's modified Eagle's medium (DMEM) supplemented with 10% fetal bovine serum (Invitrogen, San Diego, Calif.). The FB293 cells are stimulated with 100 ng/mL of Tumor Necrosis Factor-α (TNFα, available from Sigma-Aldrich of St Louis, Mo.) in the presence of the test sample. Separately, a control sample is tested wherein no test sample is applied. Following a 24-hour incubation at 37° C. with 5% CO2, cells are lysed with 40 μl of reporter lysis buffer (Promega, Madison, Wis.). A 20-μl aliquot of the lysate is assayed using a luciferase assay kit (Promega) and counted for 10 s in a Lmax luminometer (Molecular Devices, Sunnyvale, Calif.) with the data represented as the relative light unit/second. Percent NFκB Inhibition of the test sample is calculated as: NFκB Inhibition=[1−(Lsample/Lcontrol)]*100 where Lsample is the luminescence of the sample and Lcontrol is the luminescence of the control.
The NFκB-INHIBITION TEST described above was performed on test samples of Bay 11-7082 (Sigma-Aldrich, St. Louis, Mo.), Tetrahydrocurcuminoids CG (Sabinsa Corporation, Piscataway, N.J.), as well as various concentrations of 4-hexylresorcinol. The results are shown in Table 2, in which NF-κB Gene Reporter Activation (Luminescence, L) is reported for the test samples and a control sample. Percent NF-κB Inhibition is also reported.

SMILES	Percent NF-kB Inhibition (1 μg/ml) [%]	Percent NF-kB Inhibition (5 μg/ml) [%]	Percent NF-kB Inhibition (10 μg/ml) [%]	Percent NF-kB Inhibition (50 μg/ml) [%]	NF-κB inhibition (in words)	Percent NF-kB Inhibition (25 μM) [%]
CCCCCCc1ccc(O)cc1O [4-Hexylresorcinol, 4-Hexyl resorcinol]	1.9	50.9	72.9	91.4	strong NF-κB inhibition	
Cc1ccc(S(=O)(=O)/C=C/C#N)cc1 [Bay 11-7082, (E)-3-(4-methylphenylsulfonyl)-2-propenenitrile]					strong NF-κB inhibition	89.5
